Common to all, as to format: biochemical
Assay [1] concerns the target PDE1A (Homo sapiens (Human), UniProt P54750). Nature of the assay: PDE1 inhibition assay (PDE1A), SPA. Conditions: 15 nM tritium labelled cAMP.
Description: (§1) Reactions were initiated by addition of the cyclic nucleotide substrate, and reactions were allowed to proceed for 1 hr at room temperature before being terminated through mixing with 20 μL (0.2 mg) yttrium silicate SPA beads (PerkinElmer). The beads were allowed to settle for 1 hr in the dark before the plates were counted in a Wallac 1450 Microbeta counter.
Assay [2] concerns the target PDE1C (Homo sapiens (Human), UniProt Q14123). Nature of the assay: PDE1 inhibition assay (PDE1C), SPA. The conditions noted are these: 15 nM tritium labelled cAMP.
Description: as §1
For assay [3], the target named is PDE1B (Homo sapiens (Human), UniProt Q01064). The assay can be described thus: PDE1 inhibition assay (PDE1B), SPA. Conditions: 15 nM tritium labelled cAMP.
Description: Reactions were initiated by addition of the cyclic nucleotide substrate, and reactions were allowed to proceed for 1 hr at room temperature before being terminated through mixing with 20 μL (0.2 mg) yttrium silicate SPA beads (PerkinElmer).
The target of assay [4] is PDE9 (Homo sapiens (Human), UniProt O76083). Nature of the assay: PDE9 inhibition assay, SPA.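 Further: enzyme reaction incubated for 1 h, then stopped by adding yttrium silicate scintillation proximity beads for the read-out.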 The conditions noted are these: 10 microM compound; 10 nM 3H-cAMP.
Description: Reactions are initiated by addition of the cyclic nucleotide substrate, and reactions are allowed to proceed for one hr at room temperature before being terminated through mixing with 15 μL 8 mg/mL yttrium silicate SPA beads (Amersham).
Following 1 hr incubation the reactions were terminated by addition of 15 uL 8 mg/mL yttrium silicate SPA beads (Amersham).

The values that follow come from patent publication US11104680B2, “1,5-dihydro-4H-pyrazolo[3,4-d]pyrimidin-4-ones and 1,5-dihydro-4H-pyrazolo[4,3-c]pyridin-4-ones as PDE1 inhibitors” (H. Lundbeck A/S, priority 2016, dated 2021).

PDE1B, sequence (Q01064 whole entry): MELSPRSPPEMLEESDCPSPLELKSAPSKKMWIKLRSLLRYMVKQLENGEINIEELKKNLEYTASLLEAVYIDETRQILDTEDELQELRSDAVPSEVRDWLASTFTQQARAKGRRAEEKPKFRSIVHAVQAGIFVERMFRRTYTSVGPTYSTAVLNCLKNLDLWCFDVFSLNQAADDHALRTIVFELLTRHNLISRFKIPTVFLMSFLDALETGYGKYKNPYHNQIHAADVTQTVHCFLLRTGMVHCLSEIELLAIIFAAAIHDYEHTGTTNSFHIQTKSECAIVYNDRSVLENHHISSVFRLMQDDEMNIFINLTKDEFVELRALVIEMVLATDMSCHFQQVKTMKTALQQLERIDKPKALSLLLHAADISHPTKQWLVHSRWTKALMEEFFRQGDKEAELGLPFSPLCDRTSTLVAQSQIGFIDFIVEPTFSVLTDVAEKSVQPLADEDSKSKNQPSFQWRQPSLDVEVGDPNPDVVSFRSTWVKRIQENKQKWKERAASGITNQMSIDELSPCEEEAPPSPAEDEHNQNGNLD
PDE9, sequence (O76083 whole entry): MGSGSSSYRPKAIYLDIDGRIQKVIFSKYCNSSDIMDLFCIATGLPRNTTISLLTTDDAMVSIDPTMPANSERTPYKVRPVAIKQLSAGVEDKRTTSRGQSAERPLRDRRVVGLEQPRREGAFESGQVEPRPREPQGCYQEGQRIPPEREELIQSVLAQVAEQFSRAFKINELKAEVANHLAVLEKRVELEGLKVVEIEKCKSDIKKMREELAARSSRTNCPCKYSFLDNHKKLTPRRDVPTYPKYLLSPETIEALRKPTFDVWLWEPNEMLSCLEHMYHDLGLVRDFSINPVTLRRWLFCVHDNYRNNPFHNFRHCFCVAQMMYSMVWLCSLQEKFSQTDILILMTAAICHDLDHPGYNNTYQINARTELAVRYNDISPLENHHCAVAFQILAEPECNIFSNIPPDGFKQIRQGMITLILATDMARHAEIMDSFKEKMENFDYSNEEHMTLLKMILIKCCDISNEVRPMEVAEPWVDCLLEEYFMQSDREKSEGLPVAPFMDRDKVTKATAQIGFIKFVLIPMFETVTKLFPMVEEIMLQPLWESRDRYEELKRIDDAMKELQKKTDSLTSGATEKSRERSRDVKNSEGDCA
PDE1A, sequence (P54750 whole entry): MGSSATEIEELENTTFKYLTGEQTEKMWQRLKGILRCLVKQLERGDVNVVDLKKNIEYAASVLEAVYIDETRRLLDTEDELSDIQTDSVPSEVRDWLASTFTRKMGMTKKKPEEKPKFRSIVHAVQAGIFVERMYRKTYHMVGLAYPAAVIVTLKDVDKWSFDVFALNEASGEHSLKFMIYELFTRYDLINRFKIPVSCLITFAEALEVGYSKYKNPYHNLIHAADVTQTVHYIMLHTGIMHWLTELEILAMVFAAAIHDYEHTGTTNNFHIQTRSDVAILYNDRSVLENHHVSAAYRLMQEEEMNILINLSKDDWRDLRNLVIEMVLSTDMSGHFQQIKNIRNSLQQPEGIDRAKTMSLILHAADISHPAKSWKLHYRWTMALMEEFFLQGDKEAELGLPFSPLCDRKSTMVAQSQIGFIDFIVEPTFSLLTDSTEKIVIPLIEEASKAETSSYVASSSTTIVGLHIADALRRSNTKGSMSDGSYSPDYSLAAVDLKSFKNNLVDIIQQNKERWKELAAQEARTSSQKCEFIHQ
PDE1C, sequence (Q14123 whole entry): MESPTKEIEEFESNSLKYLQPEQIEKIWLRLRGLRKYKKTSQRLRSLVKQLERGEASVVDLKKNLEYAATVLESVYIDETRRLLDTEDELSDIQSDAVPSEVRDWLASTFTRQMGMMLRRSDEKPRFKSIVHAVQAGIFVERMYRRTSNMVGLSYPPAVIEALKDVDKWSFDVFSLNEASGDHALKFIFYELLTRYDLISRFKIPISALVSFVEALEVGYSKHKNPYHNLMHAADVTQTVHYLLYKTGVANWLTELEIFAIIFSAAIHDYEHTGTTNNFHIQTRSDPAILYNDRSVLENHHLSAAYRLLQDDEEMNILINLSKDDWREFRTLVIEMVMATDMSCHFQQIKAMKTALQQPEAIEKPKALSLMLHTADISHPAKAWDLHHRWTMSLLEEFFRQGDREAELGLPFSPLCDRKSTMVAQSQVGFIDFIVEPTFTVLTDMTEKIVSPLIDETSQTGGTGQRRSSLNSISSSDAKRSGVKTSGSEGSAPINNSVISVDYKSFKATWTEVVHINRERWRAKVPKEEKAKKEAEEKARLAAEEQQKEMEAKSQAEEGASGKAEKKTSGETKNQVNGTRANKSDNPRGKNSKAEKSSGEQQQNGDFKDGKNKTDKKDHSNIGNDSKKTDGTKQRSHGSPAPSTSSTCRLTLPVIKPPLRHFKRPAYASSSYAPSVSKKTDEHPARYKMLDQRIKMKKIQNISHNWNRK

What is called inhibition is how much of the control response was suppressed. As usually defined, the IC50 is the concentration that gives 50% inhibition. Regarding `COc1ccc(Cn2c(C)cc3c(cnn3C3COC3)c2=O)cc1` [Example 28, 5-(4-methoxybenzyl)-6-methyl-1-(oxetan-3-yl)-1,5-dihydro-4H-pyrazolo[4,3-c]pyridin-4-one], the inhibition at 10 µM in assay [1] (read-out: PDE1A, % inhibition @10 μM, 10 μM compound) was 63%; in assay [4] it was 14%. Also, the IC50 in assay [2] came out at 2180 nM; in assay [3], 704 nM.
As for `COc1ccc(Cn2c(C)cc3c(cnn3C3(C)CCOCC3)c2=O)cc1` [Example 29, 5-(4-methoxybenzyl)-6-methyl-1-(4-methyltetrahydro-2H-pyran-4-yl)-1,5-dihydro-4H-pyrazolo[4,3-c]pyridin-4-one], the values for the IC50 in assay [1], in assay [2] and in assay [3] were 119 nM, 174 nM and 87 nM, respectively. In assay [4], the inhibition at 10 µM worked out at 26%.
